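Results reflect a 48-hour exposure of cells in 96-well plates to compound at five concentrations. GI50 marks 50% less growth. TGI is the concentration that stops growth completely.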
Tests used:
Experiment in all cases: growth of human tumour cells (NCI), 48 h
SNB-75 CNS = system: SNB-75 CNS
SN12C renal = system: SN12C renal
OVCAR-8 ovarian = system: OVCAR-8 ovarian
SW-620 colon = system: SW-620 colon
RPMI-8226 leukemia = system: RPMI-8226 leukemia
A549 NSCLC = system: A549 NSCLC
UO-31 renal = system: UO-31 renal
SF-268 CNS = system: SF-268 CNS
HT29 colon = system: HT29 colon

Compound | TGI (SNB-75 CNS) [µM] | TGI (SN12C renal) [µM] | TGI (OVCAR-8 ovarian) [µM] | TGI (SW-620 colon) [µM] | TGI (RPMI-8226 leukemia) [µM] | TGI (A549 NSCLC) [µM] | TGI (UO-31 renal) [µM] | TGI (SF-268 CNS) [µM] | TGI (HT29 colon) [µM] | GI50 (SNB-75 CNS) [µM] | GI50 (SN12C renal) [µM] | GI50 (OVCAR-8 ovarian) [µM] | GI50 (SW-620 colon) [µM] | GI50 (RPMI-8226 leukemia) [µM] | GI50 (A549 NSCLC) [µM] | GI50 (UO-31 renal) [µM] | GI50 (SF-268 CNS) [µM] | GI50 (HT29 colon) [µM]
CCCN(CCCN)/[N+]([O-])=N\O | > 100 | > 100 | > 100 | > 100 | > 100 | > 100 | > 100 | > 100 | > 100 |  |  |  |  |  |  |  |  | 
CN1C(OCc2ccccc2)c2c(ccc3c2OCO3)C2C=Cc3cc4c(cc3C21)OCO4 (stereo not given) | 2.71 | 2.61 | 1.05 | 1.35 | 0.584 |  | 2.59 | 1.58 | 1.47 |  |  |  |  |  |  |  |  | 
N#CCCN(CCC#N)C(=O)c1cccc(C(=O)N(CCC#N)CCC#N)c1 | > 59.3 | > 58.3 | > 69.1 | 26.5 | > 85.1 | > 100 | > 100 | > 100 | 35.2 |  |  |  |  |  |  |  |  | 
CCC1=C(C)/C(=C/c2[nH]c(C(Br)Br)c(CC)c2C)N=C1C(Br)Br | 90.8 | > 100 | > 100 | > 100 | 39.9 | > 100 | > 100 | > 100 | > 100 |  |  |  |  |  |  |  |  | 
CC1(C)OC(=O)[C@@](C)([C@H](O)c2ccccc2)O1 | > 100 | > 100 | > 100 | > 100 |  | > 100 | > 100 | > 100 | > 100 |  |  |  |  |  |  |  |  | 
[C-]#[O+].[Cl][Sn]([Cl])[Cl].[Cl][Sn]([Cl])[Cl].[Pt].c1ccc([PH+](c2ccccc2)c2ccccc2)cc1.c1ccc([PH+](c2ccccc2)c2ccccc2)cc1 | > 100 | > 100 | 65.7 | > 100 | 80.3 | > 100 | > 100 | 51.1 | > 100 | > 100 | 56.6 | 22.5 | 35.1 | 27.7 | 44.1 | > 100 | 23 | > 100
O=C(O)C1CCc2nnc(-c3ccccc3)n21 (stereo not given) | > 100 | > 100 | > 100 | > 100 | > 100 | > 100 | > 100 | > 100 |  |  |  |  |  |  |  |  |  | 
COc1c(C2=NC(C(C)C)CO2)ccc2ccccc12 (stereo not given) | > 100 | > 100 | > 100 | > 100 | 65.6 | > 100 | > 100 | > 100 | > 100 |  |  |  |  |  |  |  |  | 
CCOC(=O)c1cc(/C=C/C(C)=C/C(=O)OC)oc1-c1ccccc1 |  | > 100 | > 100 | > 100 | > 100 | > 100 | > 100 | > 100 | > 100 |  |  |  |  |  |  |  |  | 
CN(C)c1ccc2c(c1)CN1C(=O)c3ccccc3C1=N2 | > 100 | > 100 | > 100 | > 100 | > 100 | > 100 | > 100 |  | > 100 | > 100 | > 100 | > 100 | > 100 | > 100 | > 100 | > 100 |  | > 100
Nc1ncnc2c1ncn2C1OC(CSC(F)(F)F)C(O)C1O (stereo not given) | > 100 | > 100 | > 100 | > 100 | > 100 | > 100 | > 100 | > 100 | > 100 |  |  |  |  |  |  |  |  | 
CC1(C)C(c2ccccc2)C12CCC1(C2=O)C(c2ccccc2)C1(C)C (stereo not given) | 90.1 | 73 | > 100 | 46.8 | 33.3 | 75.7 | 58.9 | 97.7 | 35 |  |  |  |  |  |  |  |  | 
O=S1CSCS1 (stereo not given) | > 100 | > 100 | > 100 | > 100 |  | > 100 | > 100 | > 100 | > 100 |  |  |  |  |  |  |  |  | 
Cc1cc(=O)n(-c2ccccc2)c(=O)o1 | > 100 | > 100 |  | > 100 | > 100 | > 100 | > 100 | > 100 | > 100 |  |  |  |  |  |  |  |  | 
CC1(C)CCC[C@@]2(C)C1C[C@H](O)[C@@]1(C)O[C@@](C)([C@H](O)CO)CCC21 (stereo not given in full) | 58.9 | > 100 | > 100 | > 100 | 45.2 | > 100 | 85.3 | > 100 | 86 |  |  |  |  |  |  |  |  | 
